The record followed here is patent publication US20230339991A1, “HYPOXIA-ACTIVATED DNA ALKYLATING AGENT AND MEDICAL USE THEREOF” (ASCENTAWITS PHARMACEUTICALS, LTD., priority 2020, published 2023).

Several values for one entry are separate records, joined by “and”; a condition that tells them apart may be missing. Identical values can stand only once. Like-named read-outs stand apart in the source and are kept apart here.

Data set [1] is described as follows: Plasma stability, rat. Conditions: for Remaining percentage / Remaining percentage (%): Rat plasma; for Remaining percentage: after 30 minutes. On the procedure:
The frozen plasma was immediately melted in a water bath of 37° C. The plasma was centrifuged at 3, 220 g for 10 minutes to remove the blood clots and the supernatant was collected into a new test tube. The pH of the plasma was checked and recorded. Note: a. Only plasma that has been melted no more than twice since arrival was used; b. Only plasma in the range of pH 7 to pH 8 was used.
1 mM of working solutions of the test compound and the control compound mevinolin were prepared in DMSO. 1 mM of the working solution of the control compound solution in […] was prepared in acetonitrile. 4 μL of the working solution was added to 796 μL of pre-incubated plasma to achieve 5 μM of final concentration. The final concentration of solvent was 0.5%.
[…] The assay is performed in duplicate. At the end of the two hour incubation, 300 μL of quenched solution at room temperature (acetonitrile containing internal standards (acetonitrile, 100 nM Alprazolam, 500 nM Labetalol and 2 μM ketoprofen)) was added to terminate the reaction. Samples at time 0 were prepared by adding 50 μL of standard addition plasma to the new test tubes with 300 μL of quenched solution at room temperature. The test tubes were mixed by vortex for 5 minutes. The samples in the plates were centrifuged at 3, 220×g for 30 minutes at 4° C. to precipitate the proteins. 100 μL of supernatant was transferred to a new plate. The supernatant was diluted with 100 μL of water, mixed well and analysed using LC-MS/MS.

Data set [2] deals with T1, CYP450R enzyme (Homo sapiens, UniProt P16435).
T1 sequence (P16435 1-677): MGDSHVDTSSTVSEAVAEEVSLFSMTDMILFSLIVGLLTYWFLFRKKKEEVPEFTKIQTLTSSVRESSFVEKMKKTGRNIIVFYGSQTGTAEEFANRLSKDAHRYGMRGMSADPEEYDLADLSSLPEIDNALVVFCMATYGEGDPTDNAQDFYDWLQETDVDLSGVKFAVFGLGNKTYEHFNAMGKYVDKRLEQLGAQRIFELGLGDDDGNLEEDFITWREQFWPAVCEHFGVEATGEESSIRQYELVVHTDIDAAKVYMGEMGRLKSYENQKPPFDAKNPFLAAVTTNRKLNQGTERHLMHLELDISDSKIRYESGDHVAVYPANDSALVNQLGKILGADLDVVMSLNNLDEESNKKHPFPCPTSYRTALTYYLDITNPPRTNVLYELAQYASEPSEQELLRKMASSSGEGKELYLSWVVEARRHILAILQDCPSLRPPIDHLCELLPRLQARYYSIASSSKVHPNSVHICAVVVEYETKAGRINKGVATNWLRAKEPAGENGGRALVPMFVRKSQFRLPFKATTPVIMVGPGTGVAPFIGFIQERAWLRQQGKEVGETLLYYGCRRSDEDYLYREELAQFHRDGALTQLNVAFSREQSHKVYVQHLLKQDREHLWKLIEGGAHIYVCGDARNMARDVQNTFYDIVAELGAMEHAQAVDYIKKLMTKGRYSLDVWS
Nature of the data set: Hypoxia-dependent reduction experiments. Format: biochemical. Conditions: for reduction rate compared (compound A vs TH-302): NADPH and CYP 450R enzymes. On the procedure:
The ingredients were added to each test tube without the addition of NADPH. Then 50 μl of sample from condition B was transferred to 100 μl acetonitrile (T=0). For samples to be tested under hypoxic conditions, the test tubes were placed in an hypoxic chamber (BACTRON anaerobic/environmental chamber). The reaction was initiated by adding NADPH to test tubes A and C and the sample was then placed at 37° C. For samples to be tested in air, the test tubes were placed in a hot plate at 37° C. After 30 minutes and 2 hours of incubation, 50 μl of samples were taken from each test tube and mixed with 100 μl acetonitrile. Any protein precipitate was removed by spinning all test tubes and placed into HPLC vials for analysis. The results were compared to the calibration curve of the real standard.

In data set [3] the test system is MiaPaCa-2 cells. Put plainly: Clonogenic assay, MiaPaCa-2. Format: cell-based, human. The conditions noted are these: for IC90: Homo sapiens, MIA PaCa-2, 3 h. On the procedure:
The following PSN-1 cells, PANC1 cells, MiaPaCa-2 cells, H460 cells, DLD-1 WT (wild type) cells, DLD-1 BRCA2 KO (BRCA2 deletion) cells were seeded in 10 cm vitreous cell culture plates at specific cell numbers and incubated for 2 days at 37° C. and under the conditions of 5% CO2, 95% air and 100% relative humidity. On day 3, test compounds TH302 or AST-002-P2 at the specific concentrations were added to the cells, and incubated for 3 hours together with the cells under normoxic (21% O2) and hypoxic conditions (<0.01% O2), respectively. After cells were stimulated by compounds, the cells were washed once with 1×PBS and digested into single cells with pancreatic enzymes for cell counting. The above cells in specific cell numbers were reseeded in a new culture plate and cultured for 7 days to perform single cell colony formation. When single cells in compound culture plates stimulated under normoxic conditions proliferated to about 50 cells, the cultures were removed and stained with 0.5% crystal violet for 40 minutes. After staining, cells were counted for colonies using Colony Counter (VWR) and the IC90 was calculated.

Where [4] appears, read: 21% O2, read-out: IC90 Normoxia.
The mark [5] stands for this setting: <0.01% O2, read-out: IC90 Hypoxia.

In data set [1], `CC(OP(=O)(N1CC1)N1CC1)c1ccc([N+](=O)[O-])c2ccccc12` (stereo not drawn) [Compound D] yielded a Remaining percentage of 85.49%. In data set [1] (rat plasma), the “plasma stability” value is reported as “relatively unstable”.
On to `O=[N+]([O-])c1ccc(C(OP(=O)(N2CC2)N2CC2)C(F)(F)F)c2ccccc12` (racemic) [Compound A], for which, in data set [2], the “reduction rate compared (compound A vs TH-302)” value was “similar”. For the same molecule, in data set [2] (in the presence of NADPH and CYP 450R enzymes, 37° C.), the hypoxia-dependent reduction reaction result was “showed a hypoxia-dependent reduction reaction”. Also, the “Remaining percentage (%)” value in data set [1] (15 min) was 101 ± 1.33%; in data set [1] (60 min), 88.9 ± 0.537%; in data set [1] (90 min), 84.6 ± 1.20%; in data set [1] (120 min), 69.0% and 69.0 ± 1.10%; in data set [1] (2 h time course, 0 min) it was 100%; in data set [1] (time course, 30 min), 100 ± 2.23%. In data set [1], this molecule returned a Remaining percentage of 52.11%. Besides, in data set [1] (rat plasma), the half-life at 5 µM worked out at 3.77 h. Besides, the “plasma stability” value in data set [1] (rat plasma) is recorded as “unstable”.
For `Cn1c(COP(=O)(NCCBr)NCCBr)cnc1[N+](=O)[O-]` [TH-302, Evofosfamide], the concentration for an effect of 90% (IC90) in data set [3] (setting [4]) came out at 9680 nM; in data set [3] (setting [5]), 388 nM. Further, in data set [3] (IC90 ratio normoxic/N2), the HCR was 25. In addition, the “reduction rate compared (compound A vs TH-302)” value in data set [2] is “similar”.
Consider `O=[N+]([O-])c1ccc([C@@H](OP(=O)(N2CC2)N2CC2)C(F)(F)F)c2ccccc12` (single isomer, unassigned) [Compound C], for which the figures for the IC90 in data set [3] (setting [4]) and in data set [3] (setting [5]) were over 10000 nM and 159 nM, respectively. The HCR in data set [3] (IC90 ratio normoxic/N2) is over 63; in data set [3] (IC90 ratio normoxic/N2, listed as compound C), over 63.
